# Data as given in patent publication US5840684A, “Glycopeptide antibiotic derivatives” (Eli Lilly and Company, priority 1995, dated 1998).
# Columns and labels:
# [1] = tested on: Staphylococcus aureus SA1199B; assay type: cell-based
# Method: (§1) The MIC's were determined using a standard broth micro-dilution assay.
# [2] = tested on: Staphylococcus aureus 491; assay: broth micro-dilution MIC; assay type: cell-based
# Method: as §1
# [3] = tested on: Staphylococcus aureus 489; assay: broth micro-dilution MIC; assay type: cell-based
# Method: as §1
# [4] = tested on: Staphylococcus aureus X778; assay: broth micro-dilution MIC; assay type: cell-based
# Method: as §1
# [5] = tested on: Entercoccus faecium 180-1; assay: broth micro-dilution MIC; assay type: cell-based
# Method: as §1
# [6] = tested on: Staphylococcus aureus X400; assay: broth micro-dilution MIC; assay type: cell-based
# Method: as §1
# [7] = tested on: Staphylococcus aureus SA1199A; assay: broth micro-dilution MIC; assay type: cell-based
# Method: as §1
# [8] = tested on: Streptococcus pyogenes C203; assay: broth micro-dilution MIC; assay type: cell-based
# Method: as §1
# Entercoccus faecium 276 = assay: broth micro-dilution MIC; assay type: cell-based
# Method: as §1
# [9] = tested on: Staphylococcus aureus 446; assay: broth micro-dilution MIC; assay type: cell-based
# Method: as §1
# [10] = tested on: Staphylococcus aureus 447; assay: broth micro-dilution MIC; assay type: cell-based
# Method: as §1
# [11] = tested on: vancomycin-susceptible enterococci; assay: broth micro-dilution, mean geometric MIC; assay type: cell-based, Enterococcus faecium and Enterococcus faecalis; conditions: enterococci, 24-hour incubation
# [12] = tested on: vancomycin-resistant enterococci; assay: broth micro-dilution, mean geometric MIC; assay type: cell-based, Enterococcus faecium and Enterococcus faecalis; conditions: enterococci, 24-hour incubation
# Entercoccus faecium 180 = assay: broth micro-dilution MIC; assay type: cell-based; conditions: Entercoccus faecium 180
# Method: (§2) The formula I compounds have in vitro and in vivo activity against Gram-positive pathogenic bacteria. The MIC's were determined using a standard broth micro-dilution assay.
# [13] = tested on: Enterococcus gallinarum 245; assay: broth micro-dilution MIC; assay type: cell-based; conditions: Enterococcus gallinarum 245
# Method: as §2
# Entercoccus faecium 2041 = assay: broth micro-dilution MIC; assay type: cell-based; conditions: Entercoccus faecium 2041
# Method: as §2
# [14] = tested on: Staphylococcus epidermidis 270; assay: broth micro-dilution MIC; assay type: cell-based
# Method: as §2
# [15] = tested on: Streptococcus pneumoniae P1; assay: broth micro-dilution MIC; assay type: cell-based
# Method: as §2
# [16] = tested on: Staphylococcus haemolyticus 415; assay: broth micro-dilution MIC; assay type: cell-based
# Method: as §2
# [17] = tested on: Staphylococcus haemolyticus 105; assay: broth micro-dilution MIC; assay type: cell-based
# Method: as §2
# [18] = tested on: Staphylococcus aureus S13E; assay type: cell-based
# Method: as §1
SMILES,MIC [1],MIC [2],MIC [3],MIC [4],MIC [5],MIC [6],MIC [7],MIC [8],MIC (Entercoccus faecium 276),MIC [9],MIC [10],"mean geometric MIC, Vancomycin Sensitive Strains [11]","mean geometric MIC, Vancomycin Resistant Strains [12]",MIC (Entercoccus faecium 180),MIC [13],MIC (Entercoccus faecium 2041),MIC [14],MIC [15],MIC [16],MIC [17],further results
CNC(CC(C)C)C(=O)NC1C(=O)NC(CC(N)=O)C(=O)NC2C(=O)NC3C(=O)NC(C(=O)NC(C(=O)O)c4cc(O)cc(O)c4-c4cc3ccc4O)C(OC3CC(C)(N)C(O)C(C)O3)c3ccc(c(Cl)c3)Oc3cc2cc(c3OC2OC(CO)C(O)C(O)C2OC2CC(C)(NCc3ccc(OS(C)(=O)=O)cc3)C(O)C(C)O2)Oc2ccc(cc2Cl)C1O (stereo not shown) [Compound 149],1 µg/mL,0.5 µg/mL,≤ 0.06 µg/mL,0.5 µg/mL,≤ 0.06 µg/mL,≤ 0.06 µg/mL,≤ 0.06 µg/mL,≤ 0.06 µg/mL,≤ 0.06 µg/mL,0.5 µg/mL,4 µg/mL,0.66 µg/mL,45 µg/mL,1 µg/mL,16 µg/mL,≤ 0.06 µg/mL,1 µg/mL,≤ 0.06 µg/mL,16 µg/mL,4 µg/mL,–
CNC(CC(C)C)C(=O)NC1C(=O)NC(CC(N)=O)C(=O)NC2C(=O)NC3C(=O)NC(C(=O)NC(C(=O)O)c4cc(O)cc(O)c4-c4cc3ccc4O)C(OC3CC(C)(N)C(O)C(C)O3)c3ccc(c(Cl)c3)Oc3cc2cc(c3OC2OC(CO)C(O)C(O)C2OC2CC(C)(NCc3cccc4ccccc34)C(O)C(C)O2)Oc2ccc(cc2Cl)C1O (stereo not shown) [Compound 3],≤ 0.06 µg/mL,0.5 µg/mL,≤ 0.06 µg/mL,≤ 0.06 µg/mL,≤ 0.06 µg/mL,≤ 0.06 µg/mL,≤ 0.06 µg/mL,≤ 0.06 µg/mL,≤ 0.06 µg/mL,≤ 0.06 µg/mL,≤ 0.06 µg/mL,0.11 µg/mL,–,0.5 µg/mL,≤ 0.06 µg/mL,≤ 0.06 µg/mL,8 µg/mL,≤ 0.06 µg/mL,8 µg/mL,4 µg/mL,MIC [18]: ≤ 0.06 µg/mL
CCCCCCCC#Cc1ccc(CN[C@@]2(C)C[C@H](O[C@H]3[C@H](Oc4c5cc6cc4Oc4ccc(cc4Cl)[C@@H](O[C@H]4C[C@](C)(N)[C@@H](O)[C@H](C)O4)[C@@H]4NC(=O)[C@H](NC(=O)[C@@H]6NC(=O)[C@H](CC(N)=O)NC(=O)[C@H](NC(=O)[C@@H](CC(C)C)NC)[C@H](O)c6ccc(c(Cl)c6)O5)c5ccc(O)c(c5)-c5c(O)cc(O)cc5[C@@H](C(=O)O)NC4=O)O[C@H](CO)[C@@H](O)[C@@H]3O)O[C@@H](C)[C@@H]2O)cc1 [Compound 232],32 µg/mL,4 µg/mL,8 µg/mL,8 µg/mL,1 µg/mL,8 µg/mL,2 µg/mL,≤ 0.06 µg/mL,8 µg/mL,4 µg/mL,–,0.29 µg/mL,0.71 µg/mL,0.5 µg/mL,32 µg/mL,2 µg/mL,8 µg/mL,≤ 0.06 µg/mL,32 µg/mL,2 µg/mL,MIC [18]: 8 µg/mL
CNC(CC(C)C)C(=O)NC1C(=O)NC(CC(N)=O)C(=O)NC2C(=O)NC3C(=O)NC(C(=O)NC(C(=O)O)c4cc(O)cc(O)c4-c4cc3ccc4O)C(OC3CC(C)(N)C(O)C(C)O3)c3ccc(cc3)Oc3cc2cc(c3OC2OC(CO)C(O)C(O)C2OC2CC(C)(NCc3ccc(Oc4ccccc4)cc3)C(O)C(C)O2)Oc2ccc(cc2)C1O (stereo not shown) [Compound 184],1 µg/mL,0.5 µg/mL,≤ .06 µg/mL,0.5 µg/mL,≤ .06 µg/mL,0.5 µg/mL,≤ .06 µg/mL,–,0.5 µg/mL,2 µg/mL,≤ .06 µg/mL,0.570 µg/mL,27 µg/mL,8 µg/mL,4 µg/mL,1 µg/mL,4 µg/mL,–,≤ .06 µg/mL,0.25 µg/mL,MIC [18]: 1 µg/mL
